# Measurements reported in patent EP0526840B1, “Condensed naphthyridine derivatives” (KYOWA HAKKO KOGYO CO., LTD., priority 1991, dated 1993).
# Tests used:
# [1] = tested on: hair growth; assay: Hair growth stimulation; format: in vivo, C3H/HeSlc-strain mice; settings: 16th day; applied once a day in ethanol : propyleneglycol (6 : 4); Compound 1 at 0.14 %, Compound 3 at 1.00 % (Table 4)
# Source text: Effect of test compound on hair growth in mice was examined. Hair on the back of male C3H/HeSlc-strain mice aged 9 weeks, which was in the telogen of hair cycle was clipped off by an electric hair-clipper. The test compound dissolved in a solvent mixture [ethanol : propyleneglycol (6 : 4)] was uniformly applied to the hair removed area of the mice once a day. The group which received the solvent mixture alone was used as control.
# Hair growth stimulation was estimated by measuring the ratio of the hair growing area to the test compound treated area by photograph. In the group having received the test comound, darkening of intraderma (indicating the formation of hair follicles) was observed on the 10th day, and then hair growth rapidly progressed.
# In contrast, on the 16th day of the control group, darkening of intraderma was observed only in the part of the solvent treated area and hair growth scarcely occurred. […]
# [2] = Acute toxicity test; format: in vivo, dd-strain mice; settings: orally administered; mortality observed for seven days
# Procedure: Male dd-strain mice weighing 20 -25 g, groups each consisting of 3 animals, were used, and Compound 1 and Compound 3 were orally administered. MLD was determined by observing the mortality for seven days after the administration. MLD of both compounds were over 300 mg/kg.
# [3] = tested on: spleen cells; assay: Plaque forming cell assay (inhibition of antibody production); format: cell-based, Balb/c strain mice; settings: Mus musculus, 120 h, inhibition of antibody production (PFC count), incubated 5 days, read-out: Inhibition rate (%); for inhibition at 10 µM: 10^-5M; for inhibition at 1 µM: 10^-6M
# Procedure: The plaque forming cell assay was performed by the following manner with reference to the method of Jerne [Science, 140, 405, (1963)] and the method of Yamamoto et al. [Drugs Exptl. Clin. Res., 8, 5, (1982)].
# Male Balb/c strain mice (aged 7 weeks, SLC) were sensitized with 1 x 10^8 sheep red blood cells (Bio Test Research Institute), and 6 or 7 days after the sensitization, the spleen was extirpated. The cells obtained from the spleen were treated with ACT solution (tris-ammonium chloride isotonic buffer) to remove red blood cells. The cells were washed three times with an RPMI-1640 medium (Nissui Pharmaceutical Co., Ltd.). The spleen cells (1 x 10^7 cells), the test compound dissolved in dimethyl sulfoxide and sheep blood red cells (5 x 10^6) were suspended in an RPMI-1640 medium containing 10% bovine serum (Gibco Company), 2-mercaptoethanol (5 x 10^-5M), 50 µg/ml of streptomycin and 50 IU/ml of penicillin. The suspension was distributed into a microculture plate (NUNC Co., Ltd., 24 holes), and incubated for 5 days in a carbon dioxide gas incubator at 37°C.
# After the termination of the incubation, the cells were transferred to a plastic test tube. The supernatant was removed by centrifugal separation (2000 rpm), and the pellet was re-suspended in 1 ml of an RPMI-1640 culture medium. The cell suspension, sheep blood red cells, and guinea pig complement (Cedarlene Institute) were incubated by the method of Cunningham [Immunology, 14, 599, (1968)], at 37°C for 1 to 2 hours. The appearing direct plaque cells (PFC count) in suspension were counted. From the resulting PFC count, the inhibition rate of the antibody production of the test compound was determined by the following formula. Inhibition rate (%) =(A - B)/(A)x 100 [formula] A : PFC count in the absence of test compound (dimethylsulfoxide alone) B : PFC count in the presence of test compound
# [4] = tested on: tracheae; assay: Passive Schultz-Dale (S-D) reaction, relaxation of antigen-contracted tracheal strips; parameters: species or system Hartley guinea pigs; settings: Cavia porcellus; concentration of 50% relaxation rate; passively sensitized guinea pig tracheal strips contracted with egg white albumin 1 µg/ml
# Procedure: Male Hartley guinea pigs weighing 350 to 500 g were passively sensitized by intraperitoneal injection of rabbit anti-OA serum prepared in advance by the method of Koda et al. [Folia Pharmacol., Japon 66, 237, (1970)]. After 24 hours, the guinea pigs were stunned and exsanguinated, and then tracheae were removed. The zig-zag strips of the tracheae were prepared by the method of Emmerson and Mackay [J. Pharm. Pharmacol., 31, 798, (1979)]. The strips were suspended in Krebs-Henseleit solution at 37°C under aeration of a mixed gas of 95% oxygen and 5% carbon dioxide, and equilibrated for one hour. Then, antigen (egg white albumin) was introduced in the solution (final concentration; 1 µg/ml), and the contraction was measured by isotonictransducer (TD-112s, Nihon Kohden Co., Ltd.) and recorded on a recorder (Type 3066, Yokogawa-Hokushin Denki, Co., Ltd.). After the contraction curves reached a plateau, the test compounds were successively added in order to get cumulative concentration-relaxation curves. The concentration of 50% relaxation rate (IC50) was calculated from the regression line, which was obtained from the cumulative concentration-relaxation curves.
# [5] = tested on: PAF-induced mortality; assay: Inhibition effect on platelet activating factor (PAF)-induced mortality; format: in vivo, dd mice; settings: Mus musculus, po, 2 h, minimum effective dose, orally, one hour before 40 µg/kg PAF intravenously, mortality two hours after PAF, read-out: Inhibition of PAF-induced mortality MED
# Procedure: The experiment was performed by a minor modification of method of Carlson et al. [Agents and Actions, 21, 379 (1987)]. Groups each consisting of 10 male dd mice (weighing 28 to 32 g) were used, and 100 mg/kg of test compound or a saline (control) was orally administered. One hour after the administration of the test compound, 40 µg/kg of PAF (manufactured by Avanti Polar Lipids Co., Ltd.) were intravenously administered. Two hours after PAF injection, the mortality rate of the animals was observed. […]
Compound,Hair growing area (%) Mean ± S.D. [1] [%],MLD [2],inhibition at 10 µM [3] [%],inhibition at 1 µM [3] [%],IC50 [4] [nM],minimal effective dose [5] [mg/kg]
"O=c1c2c(-c3ccccc3)n[nH]c2c2cccnc2n1-c1ccccc1 [Compound 1, 3,5-Diphenyl-1H-pyrazolo[4,3-c][1,8]naphthyridin-4(5H)-one]",91.5 ± 8.0,over 300 mg/kg,85.8,77.2,3150,10
"Cc1n[nH]c2c1c(=O)n(-c1ccccc1)c1ncccc21 [Compound 2, 3-Methyl-5-phenyl-1H-pyrazolo[4,3-c][1,8]naphthyridin-4(5H)-one]",–,–,92.4,85.8,–,–
"CC(C)Cc1n[nH]c2c1c(=O)n(-c1ccccc1)c1ncccc21 [Compound 3, 3-Isobutyl-5-phenyl-1H-pyrazolo[4,3-c][1,8]naphthyridin-4(5H)-one]",91.8 ± 7.2,over 300 mg/kg,74.9,77.2,258,5
"Cc1nn(C)c2c1c(=O)n(-c1ccccc1)c1ncccc21 [Compound 4, 1,3-Dimethyl-5-phenyl-1H-pyrazo1o[4,3-c][1,8]naphthyridin-4(5H)-one]",–,–,81.4,–,–,–
"Cn1nc(N)c2c(=O)n(-c3ccccc3)c3ncccc3c21 [Compound 6, 3-Amino-1-methyl-5-phenyl-1H-pyrazolo[4,3-c][1,8]naphthyridin-4(5H)-one]",–,–,76.5,–,–,–
"Nc1c2c(=O)n(-c3ccccc3)c3ncccc3c2nn1-c1ccccc1 [Compound 7, 3-Amino-2,5-diphenyl-2H-pyrazolo[4,3-c][1,8]naphtyyridin-4(5H)-one]",–,–,83.8,–,–,–
"O=c1c2c(-c3cccs3)n[nH]c2c2cccnc2n1-c1ccccc1 [Compound 10, 5-Phenyl-3-thienyl-1H-pyrazolo[4,3-c][1,8]naphthyridin-4(5H)-one]",–,–,83.9,57.1,708,–
"COc1ccc(-c2n[nH]c3c2c(=O)n(-c2ccccc2)c2ncccc32)cc1 [Compound 11, 3-(4-methoxyphenyl)-5-phenyl-1H-pyrazolo[4,3-c][1,8]naphthyridin-4(5H)-one]",–,–,99.5,26.5,–,–
